According to patent publication US7999006B2, “Methods of using MEK inhibitors” (Exelixis, Inc., priority 2006, dated 2011):

System: WM-266-4 xenograft tumors
Assay: WM-266-4 human melanoma xenograft model
Format: in vivo
Settings: WM-266-4 xenograft tumors in female nude mice, staged at 112±6 mg; MEK compound 10 mg/kg PO qd x 14 (AM); rapamycin 5 mg/kg IP qd x 14 (PM); single agents or combination
Experimental: For subcutaneous or intradermal tumors, the mean tumor weight of each animal in the respective control and treatment groups was determined twice weekly during the study. Tumor weight (TW) was determined by measuring perpendicular diameters with a caliper, using the following formula: tumor weight (mg)=[tumor volume=length (mm)×width^2 (mm^2)]/2.
Percent inhibition of tumor growth (TGI) is determined with the following formula:
[formula] where X0=average TW of all tumors on group day; Xf=TW of treated group on Day f; Yf=TW of vehicle control group on Day f
[formula] TGI is calculated individually for each tumor to obtain a mean±SEM value for each experimental group. Statistical significance is determined using the 2-tailed Student's t-test (significance defined as P<0.05).
The WM-266-4 human melanoma cell line is PTEN-deficient, and harbors a heterozygous activating mutation in the gene encoding B-Raf. Therefore, the ability of a MEK inhibitor administered as monotherapy, and in combination with the mTOR inhibitor rapamycin, was examined to inhibit the growth of WM-266-4 xenograft tumors in nude mice.
Tumors were established in female nude mice and staged when the tumors reached 112±6 mg. […]

SMILES: CO[C@H]1C[C@@H]2CC[C@@H](C)[C@@](O)(O2)C(=O)C(=O)N2CCCC[C@H]2C(=O)O[C@H]([C@H](C)C[C@@H]2CC[C@@H](O)[C@H](OC)C2)CC(=O)[C@H](C)/C=C(\C)[C@@H](O)[C@@H](OC)C(=O)[C@H](C)C[C@H](C)/C=C/C=C/C=C/1C [Rapamycin, rapamycin]
- TGI (%), tumor growth inhibition: 60%
